Measurements as given in US9133158B2, “Bicyclic dihydroisoquinoline-1-one derivatives” (Hoffmann-La Roche Inc., priority 2011, dated 2015).

Legend:
[1] = target: T1, human CYP11B2 (Homo sapiens, UniProt P19099); experiment: G-402 cellular enzyme assay, human CYP11B2 (aldosterone release, HTRF); type: cell-based; details: G-402 cells, 1 μM Deoxycorticosterone
T1 construct: expressed in transfected cells
T1 sequence (P19099 25-503): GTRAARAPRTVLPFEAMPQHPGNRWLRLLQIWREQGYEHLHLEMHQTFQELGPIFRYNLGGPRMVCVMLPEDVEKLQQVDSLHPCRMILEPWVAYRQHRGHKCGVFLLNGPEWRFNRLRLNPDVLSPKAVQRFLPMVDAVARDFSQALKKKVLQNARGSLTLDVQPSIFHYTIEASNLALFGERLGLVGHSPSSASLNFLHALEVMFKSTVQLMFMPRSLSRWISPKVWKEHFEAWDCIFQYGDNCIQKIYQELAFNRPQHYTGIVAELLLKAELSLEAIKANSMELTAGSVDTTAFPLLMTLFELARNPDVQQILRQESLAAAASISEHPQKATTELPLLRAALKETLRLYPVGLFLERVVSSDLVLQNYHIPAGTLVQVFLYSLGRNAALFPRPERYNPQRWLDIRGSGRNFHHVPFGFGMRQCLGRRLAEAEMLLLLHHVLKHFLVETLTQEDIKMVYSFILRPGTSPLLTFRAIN
Summary of the method: (§1)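 Cellular format in stably transfected G-402 cells over 16 h. HTRF quantified aldosterone (CYP11B2, 1 μM deoxycorticosterone substrate) or cortisol (CYP11B1, 1 μM deoxycortisol substrate); EC50 obtained by fitting a 4-parameter sigmoid to dose–response data.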

[2] = target: T2, human CYP11B1 (Homo sapiens, UniProt P15538); experiment: G-402 cellular enzyme assay, human CYP11B1 (cortisol release, HTRF); type: cell-based; details: G-402 cells, 1 μM Deoxycortisol
T2 construct: expressed in transfected cells
T2 sequence (P15538 25-503): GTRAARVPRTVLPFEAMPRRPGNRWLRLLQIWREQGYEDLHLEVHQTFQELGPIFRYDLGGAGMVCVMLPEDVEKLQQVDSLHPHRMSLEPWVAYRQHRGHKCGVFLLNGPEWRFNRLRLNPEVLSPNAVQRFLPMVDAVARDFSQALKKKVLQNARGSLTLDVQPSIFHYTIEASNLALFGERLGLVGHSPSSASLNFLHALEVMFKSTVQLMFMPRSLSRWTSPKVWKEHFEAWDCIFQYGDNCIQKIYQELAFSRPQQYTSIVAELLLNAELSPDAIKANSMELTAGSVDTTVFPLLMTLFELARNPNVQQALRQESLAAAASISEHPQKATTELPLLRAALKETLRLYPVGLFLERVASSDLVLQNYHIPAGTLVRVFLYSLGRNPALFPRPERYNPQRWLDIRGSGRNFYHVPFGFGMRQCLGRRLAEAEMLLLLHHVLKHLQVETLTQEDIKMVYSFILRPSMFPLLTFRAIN
Summary of the method: as §1

| Structure (SMILES) | EC50 [1] [nM] | EC50 [2] [nM] |
| --- | --- | --- |
| CC1(C)c2cc(F)ccc2C(=O)N1c1cncc(CNS(C)(=O)=O)c1 [Example 403, N-[5-(6-Fluoro-1,1-dimethyl-3-oxo-1,3-dihydro-isoindol-2-yl)-pyridin-3-ylmethyl]-methane-sulfonamide] | 31.7 | 1930 |
| CS(=O)(=O)NCc1cncc(N2C(=O)c3ccc(F)cc3C23CC3)c1 [Example 404, N-{[5-(6′-Fluoro-3′-oxospiro [cyclopropane-1,1′-isoindol]-2′(3′H)-yl)pyridin-3-yl]methyl} methane-sulfonamide] | 298 | 5480 |
| CC1(C)c2ccc(F)cc2C(=O)N1c1cncc(CNS(C)(=O)=O)c1 [Example 406, N-[5-(5-Fluoro-1,1-dimethyl-3-oxo-1,3-dihydro-isoindol-2-yl)-pyridin-3-ylmethyl]-methane-sulfonamide] | 165 | 3150 |
| CC1(C)c2ccc(Cl)cc2C(=O)N1c1cncc(CNS(C)(=O)=O)c1 [Example 408, N-[5-(5-Chloro-1,1-dimethyl-3-oxo-1,3-dihydro-isoindol-2-yl)-pyridin-3-ylmethyl]-methane-sulfonamide] | 923 | 14300 |
| CC1(C)c2cc(Cl)ccc2C(=O)N1c1cncc(CN2CCCS2(=O)=O)c1 [Example 409, 5-Chloro-2-[5-(1,1-dioxo-1λ6-isothiazolidin-2-ylmethyl)-pyridin-3-yl]-3,3-dimethyl-2,3-dihydro-isoindol-1-one] | 6.9 | 429 |
| CC1(C)c2cc(Cl)ccc2C(=O)N1c1cncc(CN2CCCCS2(=O)=O)c1 [Example 415, 5-Chloro-2-[5-(1,1-dioxo-1λ6-[1,2]thiazinan-2-ylmethyl)-pyridin-3-yl]-3,3-dimethyl-2,3-dihydro-isoindol-1-one] | 5.5 | 484 |
| Cn1nccc1-c1cncc(N2C(=O)c3ccc(Cl)nc3C2(C)C)c1 [Example 425, 2-Chloro-7,7-dimethyl-6-[5-(2-methyl-2H-pyrazol-3-yl)-pyridin-3-yl]-6,7-dihydro-pyrrolo[3,4-b]pyridin-5-one] | 56.2 | 1270 |
| COc1ccc2c(n1)C(C)(C)N(c1cncc(-c3ccnn3C)c1)C2=O [Example 426, 2-Methoxy-7,7-dimethyl-6-[5-(2-methyl-2H-pyrazol-3-yl)-pyridin-3-yl]-6,7-dihydro-pyrrolo[3,4-b]pyridin-5-one] | 12.1 | 572 |
| Cc1cccnc1C(=O)NCc1cncc(N2C(=O)c3ccc(Cl)cc3C2(C)C)c1 [Example 430, 3-Methyl-pyridine-2-carboxylic acid [5-(6-chloro-1,1-dimethyl-3-oxo-1,3-dihydro-isoindol-2-yl)-pyridin-3-ylmethyl]-amide] | 6.9 | 737 |
| CC1(C)c2cc(Cl)ccc2C(=O)N1c1cncc(CNC(=O)c2ncccc2Cl)c1 [Example 431, 3-Chloro-pyridine-2-carboxylic acid [5-(6-chloro-1,1-dimethyl-3-oxo-1,3-dihydro-isoindol-2-yl)-pyridin-3-ylmethyl]-amide] | 44.4 | 912 |

The next lines start with the values.

| EC50 [1] [nM] | EC50 [2] [nM] | Structure (SMILES) |
| --- | --- | --- |
| 16.5 | 1730 | CC1(C)c2cc(Cl)ccc2C(=O)N1c1cncc(CN2CCCCC2=O)c1 [Example 410, 5-Chloro-3,3-dimethyl-2-[5-(2-oxo-piperidin-1-ylmethyl)-pyridin-3-yl]-2,3-dihydro-isoindol-1-one] |
| 19.6 | 772 | CC1(C)c2cc(Cl)ccc2C(=O)N1c1cncc(CN2CCNC2=O)c1 [Example 411, 5-Chloro-3,3-dimethyl-2-[5-(2-oxo-imidazolidin-1-ylmethyl)-pyridin-3-yl]-2,3-dihydro-isoindol-1-one] |
| 46.6 | 1670 | CC1(C)c2cc(Cl)ccc2C(=O)N1c1cncc(CN2CCOC2=O)c1 [Example 412, 5-Chloro-3,3-dimethyl-2-[5-(2-oxo-oxazolidin-3-ylmethyl)-pyridin-3-yl]-2,3-dihydro-isoindol-1-one] |
| 20.7 | 813 | CC1(C)c2cc(Cl)ccc2C(=O)N1c1cncc(CN2CCCC2=O)c1 [Example 413, 5-Chloro-3,3-dimethyl-2-[5-(2-oxo-pyrrolidin-1-ylmethyl)-pyridin-3-yl]-2,3-dihydro-isoindol-1-one] |
| 30.2 | 2040 | CN1CCN(Cc2cncc(N3C(=O)c4ccc(Cl)cc4C3(C)C)c2)C1=O [Example 414, 5-Chloro-3,3-dimethyl-2-[5-(3-methyl-2-oxo-imidazolidin-1-ylmethyl)-pyridin-3-yl]-2,3-dihydro-isoindol-1-one] |
| 6 | 723 | CC(C)N1CCN(Cc2cncc(N3C(=O)c4ccc(Cl)cc4C3(C)C)c2)C1=O [Example 416, 5-Chloro-2-[5-(3-isopropyl-2-oxo-imidazolidin-1-ylmethyl)-pyridin-3-yl]-3,3-dimethyl-2,3-dihydro-isoindol-1-one] |
| 224 | 9090 | Cc1c(-c2cncc(N3CCc4cc(Cl)ccc4C3=O)c2)ncn1C [Example 417, 6-Chloro-2-[5-(1,5-dimethyl-1H-imidazol-4-yl)-pyridin-3-yl]-3,4-dihydro-2H-isoquinolin-1-one] |
| 4 | 62 | Cn1nccc1-c1cncc(N2C(=O)c3ccc(Cl)cc3C2(C)C)c1 [Example 418, 5-Chloro-3,3-dimethyl-2-[5-(2-methyl-2H-pyrazol-3-yl)-pyridin-3-yl]-2,3-dihydro-isoindol-1-one] |
| 9.1 | 122 | Cc1n[nH]cc1-c1cncc(N2CCc3cc(Cl)ccc3C2=O)c1 [Example 419, 6-Chloro-2-[5-(3-methyl-1H-pyrazol-4-yl)-pyridin-3-yl]-3,4-dihydro-2H-isoquinolin-1-one] |
| 27.4 | 281 | Cc1cn[nH]c1-c1cncc(N2CCc3cc(Cl)ccc3C2=O)c1 [Example 420, 6-Chloro-2-[5-(4-methyl-2H-pyrazol-3-yl)-pyridin-3-yl]-3,4-dihydro-2H-isoquinolin-1-one] |
| 0.7 | 32.4 | Cn1ncc(Cl)c1-c1cncc(N2CCc3cc(Cl)ccc3C2=O)c1 [Example 421, 6-Chloro-2-[5-(4-chloro-2-methyl-2H-pyrazol-3-yl)-pyridin-3-yl]-3,4-dihydro-2H-isoquinolin-1-one] |
| 154 | 11100 | Cc1cc(-c2cncc(N3CCc4cc(Cl)ccc4C3=O)c2)n(C)n1 [Example 422, 6-Chloro-2-[5-(2,5-dimethyl-2H-pyrazol-3-yl)-pyridin-3-yl]-3,4-dihydro-2H-isoquinolin-1-one] |
| 63.7 | 1020 | Cc1c(-c2cncc(N3CCc4cc(Cl)ccc4C3=O)c2)cnn1C [Example 423, 6-Chloro-2-[5-(1,5-dimethyl-1H-pyrazol-4-yl)-pyridin-3-yl]-3,4-dihydro-2H-isoquinolin-1-one] |
| 6.2 | 140 | Cn1nccc1-c1cncc(N2CCc3cc(Cl)ccc3C2=O)c1Cl [Example 424, 6-Chloro-2-[4-chloro-5-(2-methyl-2H-pyrazol-3-yl)-pyridin-3-yl]-3,4-dihydro-2H-isoquinolin-1-one] |
| 2.4 | 47.2 | Cn1ncc(Cl)c1-c1cncc(N2C(=O)c3ccc(Cl)cc3C2(C)C)c1 [Example 427, 5-Chloro-2-[5-(4-chloro-2-methyl-2H-pyrazol-3-yl)-pyridin-3-yl]-3,3-dimethyl-2,3-dihydro-isoindol-1-one] |
